Assay results published in US20230019027A1, “SHORT CONJUGATED OLIGOELECTROLYTESAND ANTIBIOTICS” (The Regents Of The University Of California, priority 2019, published 2023).

Assays:
Format in all cases: cell-based
E. Coli K-12 = experiment: Susceptibility test: individual MIC and check point FIC; design: MICCOE: unit not given beside the values; settings: for MICantibiotic: antibiotic alone, unit assumed; for FIC: smallest FIC
Description: (§1) FIC was calculated based on the toxicity of each molecule on E. coli as well as their combined toxicity on E. coli. The equation for calculation is as follows:
(§2) FIC═[COE]/MICCOE+[Antibiotic]/MICantibiotic
(§3) An FIC less than ≤0.5 indicates synergy, FIC in the range of >0.5 and ≤1.0 indicates additive activity, FIC in the range of >1 and […] indicates indifference, and a FIC >4 indicates antagonism.
(§4) Minimal inhibition concentration (MIC) were used to determine the toxicity of individual molecules as well as them in combination on several bacterial strains. The individual MIC were determined by the minimal concentration of molecules required to inhibit the growth of the bacterial strain in culture medium (such as Lysogeny broth (LB) and Muller Hinton Broth (MHB)) at 37° C. overnight. The combined MICs were measured by using check point method, where the bacterial strain was cultured in a 96-well plate assay with a series concentrations of COE along the rows and a series concentrations of antibiotic molecules along the columns in culture medium at 37° C. overnight. The preparation of the bacterial strain for the assay was done as known in the art. […] Further information regarding the protocol can be found in Wiegand et al., Natl. Protoc., (2008) 3(2):163-75, Orhan et al., J. of Clin. Microbiol. (2005) 43(1):140-143 and Yan et al., Chem. Sci., (2016) 7(9):5714-5722.

[1] = tested on: Pseudomonas aeruginosa 01 (PA01); experiment: as above; design: unit not given beside the values; settings: antibiotic alone, 37° C. overnight
Description: as §1, §2, §3, §4

[2] = tested on: Colistin resistant Pseudomonas aeruginosa; experiment: as above; design: MICantibiotic / MICCOE: unit not given beside the values
Description: as §1, §2, §3, §4

Acinetobactor baumanni = experiment: as above
Description: as §1, §2, §3, §4

[3] = tested on: Colistin resistant Acinetobactor baumanni; experiment: as above
Description: as §1, §2, §3, §4

[4] = tested on: HepG2 (ATCC HB-8065) cells; experiment: Cellular cytotoxicity, MTT viability assay; settings: 24 h incubation, at 128 μg/mL
Description: Cellular cytotoxicity was assessed using an MTT viability assay. HepG2 (ATCC HB-8065) cells were seeded at 1×10^4 cells/well in 96 well plates over night at 37° C. in DMEM supplemented with 10% FBS before use. COEs were serially diluted with 2-fold dilution in culture media to afford a concentration ranging from 2 to 128 μg/mL. After 24 h incubation, 10 μL of a 5 mg/mL solution of MTT was added to each well. After incubation for 2-4 h, upon discard of previous media, 100 μL of DMSO as solubilizing solution was added to each well, and absorbance at 570 nm were measured on a plate reader. Percent viability was determined by dividing background-corrected absorbance measurements by background corrected measurements for untreated cells. Formula O, Formula TT and Formula PP were measured to be around 94%, 70% and 103% of cell viability at 128 μg/mL, respectively.

[5] = COE in combination with Colistin, smallest FIC

penicillin
MICantibiotic (E. Coli K-12; E. Coli K-12): 64 µg/mL

O=C(O)c1cn(C2CC2)c2cc(N3CCNCC3)c(F)cc2c1=O [Ciprofloxacin, ciprofloxacin]
MICantibiotic (E. Coli K-12; E. Coli K-12): 0.125 µg/mL

colistin [reference compound]
MICantibiotic [1]: 1
MICantibiotic ([2]; antibiotic alone): 16
MICantibiotic (Acinetobactor baumanni; antibiotic alone): 256
MICantibiotic ([3]; antibiotic alone): 512
MICantibiotic (E. Coli K-12; E. Coli K-12): 1 µg/mL

CO[C@H]1/C=C/O[C@@]2(C)Oc3c(C)c(O)c4c(O)c(c(/C=N/N5CCN(C)CC5)c(O)c4c3C2=O)NC(=O)/C(C)=C\C=C\[C@H](C)[C@H](O)[C@@H](C)[C@@H](O)[C@@H](C)[C@H](OC(C)=O)[C@@H]1C [Rifampin, rifampin]
MICantibiotic (E. Coli K-12; E. Coli K-12): 32 µg/mL

C[N+](C)(C)CCCCCCOc1cc(/C=C/c2ccc(/C=C/c3ccc(/C=C/c4cc(OCCCCCC[N+](C)(C)C)cc(OCCCCCC[N+](C)(C)C)c4)cc3)cc2)cc(OCCCCCC[N+](C)(C)C)c1 [Formula TT]
MICCOE ([2]; COE alone): 256
FIC [2, 5]: 0.14
antimicrobial effect of combination (in words) ([2]; with colistin): significant synergistic antimicrobial effect
MICCOE (Acinetobactor baumanni; COE alone): 256
FIC (Acinetobactor baumanni; [5]): 0.51
MICCOE ([3]; COE alone): 256
FIC [3, 5]: 0.25
antimicrobial effect of combination (in words) ([3]; with colistin): significant synergistic antimicrobial effect
MICCOE (E. Coli K-12; COE alone, E. Coli K-12): 1024
FIC (E. Coli K-12; COE in combination with Chloramphenicol, E. Coli K-12): 1.0
FIC (E. Coli K-12; COE in combination with Penicillin, E. Coli K-12): 0.53
FIC (E. Coli K-12; COE in combination with Rifampin, E. Coli K-12): 0.28
antimicrobial effect of combination (in words) (E. Coli K-12; with rifampin, E. coli K-12): significant synergistic antimicrobial effect
cell viability [4]: ~70%

CC1(C)S[C@@H]2[C@H](NC(=O)[C@H](N)c3ccccc3)C(=O)N2[C@H]1C(=O)O [Ampicilin, ampicillin]
MICantibiotic (E. Coli K-12; E. Coli K-12): 4 µg/mL

O=C(N[C@H](CO)[C@H](O)c1ccc([N+](=O)[O-])cc1)C(Cl)Cl [Chloramphenicol, chloramphenicol]
MICantibiotic (E. Coli K-12; E. Coli K-12): 16 µg/mL

Cc1cc(NS(=O)(=O)c2ccc(N)cc2)no1 [Sulfamethoxazole, sulfamethoxazole]
MICantibiotic (E. Coli K-12; E. Coli K-12): 512 µg/mL
